One compound from patent publication US9408828B2, “(+)-3′-angeloyloxy-4′-keto-3′,4′-dihydroseselin for treating inflammation” (Hong Kong Baptist University, priority 2014, dated 2016) can be followed below.

Data set [1] relates to RAW-Blue cells. Briefly: Cell viability (MTT) assay. Type of data set: cell-based, murine. The settings on record: 24 hours. How it is done:
Cells are cultured for 24 hours in the presence of Pd-Ib at the concentrations indicated, from 1.25-100 μg/mL. Cell viability is assessed using MTT assay. Data are derived from three independent experiments and presented as mean±SEM. “con” stands for the vehicle control group.
Cells (5×10^4) are cultured in 96-well plates for 24 hours. Then cells are cultured with various concentrations of Pd-Ib (1.25, 2.5, 5, 10, 20, 40, 80, 100 μg/mL) for 24 hours. After that, 10 μL of 5 mg/mL MTT is added to each well, and the cells are cultured in the dark for 3 hours. The medium is then discarded, and 100 μL of dimethyl sulfoxide (DMSO) is added into each well. After 15 min incubation, the optical density at 570 nm is read by using a micro-plate reader to determine the cell viability.

The subject of data set [2] is iNOS. Briefly: Western blot of iNOS protein in LPS-stimulated RAW-Blue cells. Type of data set: cell-based, murine. The settings on record: LPS 1 μg/mL, 5, 10, 20 μg/mL, 20 h. As to the method:
(§1) Data are derived from three independent experiments and presented as mean±SEM. ^#Compared with control group. *P<0.05, **P<0.01 and ***P<0.001 are compared with LPS-alone group.
(§2) After Raw-Blue cells are treated with LPS and Pd-Ib, whole cell extract is prepared with lysis buffer [1% Triton X-100, 0.1% SDS, 0.5% deoxycholate, 1 mM EDTA, 20 mM Tris (pH 7.4), 150 mM NaCl, 10 mM NaF, 1 mM Na3VO4, 0.1 mM phenylmethylsulfonyl fluoride and one protease inhibitor cocktail tablet (Roche, USA)]. Total protein concentration is measured using a protein assay kit, followed by centrifugation at 13,500 rpm for 15 minutes at 4° C., then 10-25 μg of protein from the supernatants is then separated on 10% sodium dodecylsulphate-polyacrylamide gel (SDS-PAGE) and transferred on to polyvinylidene difluoride membranes. After blocking with 5% skim milk powder in Tris-buffered saline-Tween (TBST; 50 mM Tris, 150 mM NaCl, pH 7.4; 0.01% Tween-20) for 1 hour at room temperature, the membrane is then incubated with primary antibody (1:5,000 dilution) in 5% skim milk in TBST overnight at 4° C. […] The membrane is rewashed (TBST; 3×10 min), and the immune-reactive proteins are detected by enhanced chemiluminescence using X-ray film and ECL reagent. The protein bands are quantified by measuring the relative intensity compared to the control using Image J Software (version 4.1.7, NIH, USA).

Data set [3] concerns COX-2. Briefly: Western blot of COX-2 protein in LPS-stimulated RAW-Blue cells. The conditions noted are these: LPS 1 μg/mL, 5, 10, 20 μg/mL, 20 h. Format: cell-based, murine. As to the method:
as §1, §2
For orientation: Immunoblotting shows a protein as a band on a membrane.

In data set [4] the test system is nitric oxide (NO) production in LPS-stimulated RAW-Blue cells. Briefly: Nitric oxide production determination (Griess reagent). Type of data set: cell-based, murine. The conditions noted are these: Mus musculus, LPS 1 μg/mL 20 hours. As to the method: After macrophages are treated with 1 μg/mL of LPS in absence or presence various concentrations of Pd-Ib (5, 10, 20 μg/mL) for 20 hours, the mRNA levels of iNOS (A), TNF-α (B) and IL-1β (C) are determined by real time PCR, while the production of NO (D) is determined by Griess reagent. Data are derived from three independent experiments and presented as mean±SEM, “con” stands for the vehicle control group. ^#Compared with control group. *P<0.05, **P<0.01 and ***P<0.001 are compared with LPS-alone group.
Nitric oxide (NO) production is indirectly assessed by measuring the nitrite levels in the cultured medium determined by a colorimetric method based on the Griess reagent and sodium nitrite as a standard substance. The cells are pretreated with various concentrations of Pd-Ib (5-20 μg/mL). Two hours later, cells are incubated for another 20 hours in the presence of LPS (1 μg/mL) at 37° C. Then, 100 μL of each supernatant is mixed with the equal volume of Griess reagent. The samples are incubated at room temperature for 15 min. The optical densities are measured at 540 nm with a micro-plate reader and nitrite concentration is determined using a standard curve generated with known concentrations of sodium nitrite.
(In general: Nitrite, measured by Griess reagent, commonly stands in for NO production.)

In data set [5] the test system is Myeloperoxidase (MPO). Put plainly: Neutrophil infiltration in colon tissue (MPO assay). Type of data set: in vivo, C57BL/6 mice. The conditions noted are these: DSS-induced colitic mice, Pd-Ib treatment groups. How it is done:
Myeloperoxidase (MPO) is an enzyme mainly released by neutrophil, and its activity is directly associated with the severity of inflammation in a given tissue. In this example, MPO activity is measured as described in our previous study. Briefly, the colon tissues kept at −80° C. are weighed and homogenized in 0.5% hexadecyltrimethylammonium bromide 1 mL per 100 mg of colon tissue. The homogenates are centrifuged at 19 000 rpm at 4° C. for 15 min. Aliquots of 80 iL supernatant are mixed with 120 μL potassium phosphate buffer (50 mmol, pH 6.0) with 0.0005% o-dianisidine dihydrochloride and 0.1% hydrogen peroxide. Changes in optical density are measured at 460 nm at room temperature (25° C.). MPO activity is calculated from the rate of optical density changes and one unit of MPO activity is defined as the amount of enzyme present that produced a change in optical density of […] at 25° C. in the final reaction volume. The results are normalized to the wet weight of colon tissue and quantified as units/mg tissue.
Colitis is induced in all groups except the control group. Pd-Ib and sulfasalazine are administered to mice from day 6 to day 12. On day 13, the mice are sacrificed, and MPO activity is determined in colon homogenates. Data are expressed as mean±SEM, n=8 (*p<0.05, **p<0.01, ***p<0.001, compared with DSS model group).

Data set [6] concerns IL-4. Briefly: ELISA of IL-4 in colon tissue, DSS-induced colitis. The settings on record: compared with the DSS treatment group; increase in IL-4. Type of data set: in vivo, C57BL/6 mice. As to the method: Colon levels of cytokines are assayed using commercially available ELISA kits. Briefly, colon samples are homogenized in phosphate buffer containing 0.05% Tween-20, 0.1 mM phenylmethylsulfonyl fluoride, 0.1 mM benzethonium chloride, 10 mM EDTA, and 20 IU aprotinin A. The homogenates are centrifuged at 16000 g at 4° C. for 15 min, and the supernatants are collected for the determination of levels of the cytokines, IL-6, IL-4, TNF-α, and IFN-γ, according to the manufacturer's protocols. The amount of protein in each sample is measured by the Bradford method, using bovine serum albumin as a standard. The levels of each cytokine are evaluated in each sample and expressed in […].
Colitis is induced in all groups except the control group. Pd-Ib and sulfasalazine are administered to mice from day 6 to day 12. On day 13, the mice are sacrificed, Data are expressed as mean±SEM, n=8 (*p<0.05, **p<0.01, ***p<0.001, compared with DSS model group).

In general, inhibition refers to the change of the read-out against control, counted positive when it falls. Read a high inhibition as strong suppression. Regarding `C/C=C(\C)C(=O)OC1C(=O)c2c(ccc3ccc(=O)oc23)OC1(C)C` (single isomer, unassigned; (+)) [Pd-Ib, (+)-3′-Angeloyloxy-4′-keto-3′,4′-dihydroseselin], the cytotoxic effect entry in data set [1] (1.56 to 20 μg/mL) is recorded as “does not exhibit cytotoxic effect”. For the same compound, in data set [1] (40, 80, and 100 μg/mL), the cell viability entry is “cell viability is reduced”. In data set [2], the iNOS protein level entry is listed as “strongly down-regulates”. In addition, in data set [3], the COX-2 protein level result is “strongly down-regulates”. The same compound yielded an inhibition at 5 µg/mL in data set [4] (5 μg/mL) of 17.6 ± 2.96%. In data set [4] (10 μg/mL), the inhibition at 10 µg/mL is 29.8 ± 1.34%. In data set [4] (20 μg/mL), this compound had an inhibition at 20 µg/mL of 55.5 ± 1.15%. Besides, the “MPO activity in colon” value in data set [5] is reported as “suppresses MPO activity significantly”. In addition, the “production of IL-4 in colon tissue” value in data set [6] was “significant effect on the production of IL-4 in a dose-dependent manner”.
